The text below walks through data of ChEMBL document CHEMBL5303304, “EUbOPEN Chemogenomics Library - IncuCyte” (2023).

For one data set, the system named is HEK-293T. Kind of data set: Incucyte cell viability with HEK293T. In kind it is toxicity, cell-based. The settings on record: human, 10 µM, compound concentration 10 uM.
For another data set, the system named is Fibroblast. The data set is described as follows: Incucyte cell viability with human fibroblast. In kind it is toxicity, cell-based. The settings on record: 10 µM, compound concentration 10 uM.
Further: unitless GR value; below 1 slowed growth and below 0 cell loss.

In the case of `Cc1ccc(NC(=O)c2ccc(CN3CC[C@H](N(C)C)C3)c(C(F)(F)F)c2)cc1Nc1nccc(-c2cncnc2)n1` [BAFETINIB], the “Growth Rate” value was 0.57 in the data set on HEK-293T (6 h, replicate number 1); 0.67 in the data set on HEK-293T (12 h, replicate number 1); 0.68 with HEK-293T (12 h, replicate number 2); 0.96 in the data set with HEK-293T (18 h, replicate number 1); 0.99 with HEK-293T (18 h, replicate number 2); 0.97 in the data set with HEK-293T (24 h, replicate number 1). Also, the “Growth Rate” value with Fibroblast (0 h, replicate number 1) was -1; in the data set with Fibroblast (0 h, replicate number 2), 0.2; in the data set with Fibroblast (6 h, replicate number 1), -0.23; in the data set on Fibroblast (6 h, replicate number 2), -0.55; with Fibroblast (12 h, replicate number 1), 0.05; in the data set with Fibroblast (12 h, replicate number 2) it was 0.02. The “Growth Rate” value was determined as 0.01 in the data set on Fibroblast (18 h, replicate number 1); 0.39 with Fibroblast (18 h, replicate number 2); 0.14 with Fibroblast (24 h, replicate number 1); 0.54 in the data set on Fibroblast (24 h, replicate number 2).
For `CCN(CC)C(=O)C1CN2CCc3cc(OC)c(OC)cc3C2CC1OC(C)=O` (configuration not stated) [BENZQUINAMIDE], the “Growth Rate” value with HEK-293T (0 h, replicate number 1) is 0.39; in the data set with HEK-293T (6 h, replicate number 2) it was 0.7; in the data set on HEK-293T (12 h, replicate number 2) it was 0.59; with HEK-293T (18 h, replicate number 2) it was 0.61; with HEK-293T (24 h, replicate number 2), 0.87; in the data set on Fibroblast (6 h, replicate number 2), -0.43. Further, the “Growth Rate” value in the data set with Fibroblast (12 h, replicate number 2) stood at 1; with Fibroblast (18 h, replicate number 2), 0.6; in the data set with Fibroblast (24 h, replicate number 2), 0.97.
As to `CN(C)C(=O)Cn1cc(-c2nc(C3(c4ccc(-c5cnc(N)nc5)cc4)CC3)no2)cn1` [BI 0153], the “Growth Rate” value is 0.71 in the data set on HEK-293T (0 h, replicate number 1); 0.25 with HEK-293T (6 h, replicate number 1); 0.95 with HEK-293T (18 h, replicate number 1); 0.92 with HEK-293T (24 h, replicate number 1); -1 with Fibroblast (0 h, replicate number 1); -0.89 with Fibroblast (0 h, replicate number 2). Also, the “Growth Rate” value in the data set with Fibroblast (6 h, replicate number 1) is 0.57; with Fibroblast (6 h, replicate number 2), -0.35; in the data set with Fibroblast (12 h, replicate number 2) it was 0.4; with Fibroblast (18 h, replicate number 1) it was 0.91; in the data set with Fibroblast (18 h, replicate number 2) it was 0.6; in the data set with Fibroblast (24 h, replicate number 1), 0.73. In addition, the “Growth Rate” value in the data set on Fibroblast (24 h, replicate number 2) is on record as 0.96.
Regarding `CN[C@@H](C)C(=O)N[C@H](C(=O)N1CCC[C@H]1C(=O)Nc1sc(-c2ncco2)nc1-c1ccccc1)C1CCCCC1` [GDC-0917], the “Growth Rate” value in the data set on HEK-293T (0 h, replicate number 1) was found to be 0.71; in the data set on HEK-293T (6 h, replicate number 1), 0.6; with HEK-293T (6 h, replicate number 2), 0.98; in the data set with HEK-293T (12 h, replicate number 1), 0.93; in the data set on HEK-293T (18 h, replicate number 1) it was 0.86; with HEK-293T (24 h, replicate number 1), 0.92. Moreover, the “Growth Rate” value was 0.99 with HEK-293T (24 h, replicate number 2); -1 in the data set on Fibroblast (0 h, replicate number 1); 0.6 with Fibroblast (6 h, replicate number 2).
As for `CC(C)(O)c1cnc(N2C[C@@]3(CCC[C@](C)(Cn4cnc5ccc(C#N)cc54)C3)OC2=O)cn1` [GSK2798745], the “Growth Rate” value with HEK-293T (6 h, replicate number 1) is listed as -0.31; in the data set on HEK-293T (6 h, replicate number 2), 0.2; in the data set on HEK-293T (12 h, replicate number 1), 0.38; in the data set with HEK-293T (12 h, replicate number 2), 0.41; in the data set with HEK-293T (18 h, replicate number 1) it was 0.47; with HEK-293T (18 h, replicate number 2), 0.43. For the same compound, the “Growth Rate” value with HEK-293T (24 h, replicate number 1) was 0.49; in the data set with HEK-293T (24 h, replicate number 2), 0.45; in the data set on Fibroblast (0 h, replicate number 1), 0.24; with Fibroblast (6 h, replicate number 2), -1; in the data set on Fibroblast (12 h, replicate number 2), -0.2; with Fibroblast (18 h, replicate number 1), -0.39. In addition, the “Growth Rate” value with Fibroblast (18 h, replicate number 2) is recorded as 0.4; in the data set with Fibroblast (24 h, replicate number 2), 0.36.
As to `Cc1cccc(-c2[nH]c(CNc3ccccc3F)nc2-c2ccc3ncnn3c2)n1` [VACTOSERTIB], the “Growth Rate” value in the data set with HEK-293T (0 h, replicate number 1) is recorded as 0.84; in the data set with HEK-293T (0 h, replicate number 2) it was -0.43; in the data set with HEK-293T (6 h, replicate number 1) it was 0.95; in the data set with HEK-293T (6 h, replicate number 2), 0.58; in the data set with Fibroblast (0 h, replicate number 2), -0.26; in the data set on Fibroblast (18 h, replicate number 1), 0.97.
